By GI50 is commonly meant the concentration giving 50% growth inhibition. Low readings indicate greater sensitivity of the cells, high ones lower sensitivity of the cells.

Assay [1] concerns T-Rex 293 cell line SC3 cells lacking increased expression of androgen receptor protein. Briefly: Cellular growth inhibition, T-Rex 293 SC3 cells without doxycycline, CellTiter-Glo. As to conditions: T-Rex 293 SC3 cells not exposed to doxycycline; 72 hours; CellTiter-Glo 2.0. Type of assay: cell-based. A digest of the protocol:
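Doxycycline-inducible androgen receptor T-Rex 293 clone SC3, seeded at 2500/well in phenol red-free DMEM with 10% charcoal-dextran FBS, without doxycycline or with 10 ng/mL to induce receptor. Compound added after 24 h (0.5% DMSO), 72 h at 37 °C; CellTiter-Glo 2.0 luminescence, GI50 by four-parameter fit.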

Assay [2] is described as follows: Cellular growth inhibition, T-Rex 293 SC cells with doxycycline (progesterone receptor isoform B induced), Example 45. Conditions: progesterone receptor isoform B induced with 10 ng/mL doxycycline, 72 hours, CellTiter-Glo 2.0, Table 11. It is filed as cell-based. A general note: ATP-based viability assays read luminescence as a measure of living cells.

Where only a bound is given, the exact number is not on record here.

Turning to `Cc1sc2c(c1C)C(c1ccc(CC3CC4(CCN(c5ccc(C(=O)N[C@H]6C(C)(C)[C@H](Oc7ccc(C#N)c(Cl)c7)C6(C)C)cn5)CC4)C3)cc1)=N[C@@H](Cc1ncco1)c1nnc(C)n1-2` [Compound I-143], the GI50 in assay [1] and in assay [2] was less than 0.5 µM each time.
Regarding `Cc1sc2c(c1C)C(c1ccc(N3CC(N4CCN(c5ncc(C(=O)N[C@H]6C(C)(C)[C@H](Oc7ccc(C#N)c(Cl)c7)C6(C)C)cn5)CC4)C3)cc1)=NC(Cc1ncco1)c1nnc(C)n1-2` (stereo partly shown) [Compound I-208], the GI50 in assay [1] and in assay [2] was less than 0.5 µM in each case.
